In patent US20230146455A1, “TREATMENT OF INFLAMMATORY DISEASES WITH PEPTIDES AND PHARMACEUTICAL COMPOSITIONS” (Yuyu Pharma, Inc., priority 2020, published 2023):
Several values for one entry are separate records, joined by “and”; a condition that tells them apart may be missing. Equal entries are not always repeated. Where a SMILES comes first, the peptide text is derived from it. [ ]: non-standard residue; d: D form. Hyp = O=C(O)[C@@H]1C[C@@H](O)CN1

Tested on: IL-6
Experiment: Example 8 main study Luminex, LPS hPBMCs: IL-6
Format: cell-based, human
Conditions: for LPS-induced IL-6 (in words): at as low as 5 μM, LPS 5 ug/mL 24 hrs
Protocol: Human PBMCs were pretreated with YY-101, YDE-011, YDE-043 or reference compound; Xiidra® at various concentration (ranging from […] to 500 nM) for 2 h before stimulation. An equal volume of 0.5% DMSO was used as a vehicle control. Then, the cells were treated with LPS at 5 ug/ml, which was selected based on the pilot study. The supernatants from treated cells were harvested at 24 h and placed in a 96 well for Luminex cytokine & chemokine profiling using a Luminex 200 multiplex assay (Luminex; R&D system, USA).
The main study arm with triplicate wells per group in a 24-well plate: • 1. Blank • 2. PBMC: 0.5% DMSO • 3. PBMC+LPS (5 ug/ml) • 4. PBMC+YY-101 500 nM • 5. PBMC+YY-101 50 nM • 6. PBMC+YY-101 5 nM • 7. PBMC+YY-101 0.5 nM • 8. PBMC+LPS (5 ug/ml)+Xiidra® 500 nM • 9. PBMC+LPS (5 ug/ml)+Xiidra® 50 nM • 10. PBMC+LPS (5 ug/ml)+Xiidra® 5 nM • 11. PBMC+LPS (5 ug/ml)+Xiidra® 0.5 nM • 12. PBMC+LPS (5 ug/ml)+Xiidra® 0.05 nM • 13. PBMC+LPS (5 ug/ml)+Xiidra® 0.005 nM • 14. PBMC+LPS (5 ug/ml)+YY-101 500 nM • 15. PBMC+LPS (5 ug/ml)+YY-101 50 nM • 16. PBMC+LPS (5 ug/ml)+YY-101 5 nM • 17. PBMC+LPS (5 ug/ml)+YY-101 0.5 nM • 18. PBMC+LPS (5 ug/ml)+YY-101 0.05 nM • 19. PBMC+LPS (5 ug/ml)+YY-101 0.005 nM • 20. PBMC+LPS (5 ug/ml)+YDE-011 500 nM • 21. PBMC+LPS (5 ug/ml)+YDE-011 50 nM • 22. PBMC+LPS (5 ug/ml)+YDE-011 5 nM • 23. PBMC+LPS (5 ug/ml)+YDE-011 0.5 nM • 24. PBMC+LPS (5 ug/ml)+YDE-011 0.05 nM • 25. PBMC+LPS (5 ug/ml)+YDE-011 0.005 nM • 26. PBMC+LPS (5 ug/ml)+YDE-043 500 nM • 27. PBMC+LPS (5 ug/ml)+YDE-043 50 nM • 28. PBMC+LPS (5 ug/ml)+YDE-043 5 nM • 29. PBMC+LPS (5 ug/ml)+YDE-043 0.5 nM • 30. PBMC+LPS (5 ug/ml)+YDE-043 0.05 nM • 31. PBMC+LPS (5 ug/ml)+YDE-043 0.005 nM
Multiplex assay was used to measure 30 cytokines and chemokines. The 1:200 diluted cell supernatant and serial dilution of the standard were dispensed into a 96 well plate at 50 ul/well. Then, the pre-mixed cocktail of antibody-coated magnetic beads was dispensed at 50 ul/well and incubated at room temperature for 2 h in a horizontal orbital microplate shaker at 800±500 rpm. The beads were washed using a magnetic device to prevent loss. The biotin-antibody was dispensed in 50 ul of each well and incubated at room temperature for 1 h in a shaker at 800±500 rpm. After washing, streptavidin-PE was added at 50 ul/well and incubated at room temperature for 30 min in a shaker under the same conditions. Finally, after washing, wash buffer (100 ul/well) was added to the plate and incubated in a shaker for 2 min. The Luminex™ 200 setting were set according to the manufacturer's protocol. The data was calculated with a standard five-parameter logistic nonlinear regression analysis of the data (xPonent software 4.2, USA). Results were presented as concentration (ng/ml or pg/ml).

[1] = PBMC + LPS(5 ug/ml) + test article 0.005 nM
[2] = PBMC + LPS(5 ug/ml) + test article 0.005 nM, single replicates (1st, 2nd, 3rd)
[3] = PBMC + LPS(5 ug/ml) + test article 0.05 nM
[4] = PBMC + LPS(5 ug/ml) + test article 0.05 nM, single replicates (1st, 2nd, 3rd)
[5] = PBMC + LPS(5 ug/ml) + test article 0.5 nM
[6] = PBMC + LPS(5 ug/ml) + test article 0.5 nM, single replicates (1st, 2nd, 3rd)
[7] = PBMC + LPS(5 ug/ml) + test article 5 nM
[8] = PBMC + LPS(5 ug/ml) + test article 5 nM, single replicates (1st, 2nd, 3rd)
[9] = PBMC + LPS(5 ug/ml) + test article 50 nM
[10] = PBMC + LPS(5 ug/ml) + test article 50 nM, single replicates (1st, 2nd, 3rd)
[11] = PBMC + LPS(5 ug/ml) + test article 500 nM
[12] = PBMC + LPS(5 ug/ml) + test article 500 nM, single replicates (1st, 2nd, 3rd)

| Structure (SMILES) | IL-6 Concentration, Mean [1] [pg/mL] | IL-6 Concentration [2] | IL-6 Concentration, Mean [3] [pg/mL] | IL-6 Concentration [4] | IL-6 Concentration, Mean [5] [pg/mL] | IL-6 Concentration [6] | IL-6 Concentration, Mean [7] [pg/mL] | IL-6 Concentration [8] | IL-6 Concentration, Mean [9] [pg/mL] | IL-6 Concentration [10] | IL-6 Concentration, Mean [11] [pg/mL] | IL-6 Concentration [12] | LPS-induced IL-6 (in words) | also measured |
| --- | --- | --- | --- | --- | --- | --- | --- | --- | --- | --- | --- | --- | --- | --- |
| CC(C)C[C@H](NC(=O)CNC(=O)[C@H](CC(C)C)NC(=O)[C@H](CCC(N)=O)NC(=O)CNC(=O)[C@@H]1C[C@@H](O)CN1)C(=O)N[C@@H](C)C(=O)NCC(=O)N1CCC[C@H]1C(=O)N[C@@H](CCCCN)C(=O)O [YDE-011] (H-[Hyp]GQLGLAGPK-OH) | 16114.6 | 16843.8 pg/mL and 15250.9 pg/mL and 16249.2 pg/mL | 18589.3 | 18843.4 pg/mL and 18343.3 pg/mL and 18581.4 pg/mL | 15456.8 | 15322.2 pg/mL and 15654.9 pg/mL and 15393.5 pg/mL | 13541.9 | 12094.3 pg/mL and 12947.9 pg/mL and 15583.6 pg/mL | 14621.7 | 17248.3 pg/mL and 9892.0 pg/mL and 16724.9 pg/mL | 14568.3 | 19367.5 pg/mL and 9383.5 pg/mL and 14953.9 pg/mL | significantly reduced |  |
| CC(C)C[C@H](NC(=O)[C@H](CCC(N)=O)NC(=O)CNC(=O)[C@@H]1C[C@@H](O)CN1)C(=O)NCC(=O)O [YDE-043] (H-[Hyp]GQLG-OH; N-terminus and C-terminus assumed) | 17678.1 | 15726.2 pg/mL and 16772.5 pg/mL and 20535.6 pg/mL | 14253.4 | 13386.9 pg/mL and 14716.3 pg/mL and 14657.0 pg/mL | 14811.5 | 15322.2 pg/mL and 15084.6 pg/mL and 14027.7 pg/mL | 16507.0 | 16380.0 pg/mL and 17224.5 pg/mL and 15916.4 pg/mL | 16067.3 | 16962.8 pg/mL and 16570.3 pg/mL and 14668.8 pg/mL | 14209.8 | 13873.4 pg/ml (2×) and 14882.6 pg/ml | significantly reduced |  |
| CC(C)C[C@H](NC(=O)CNC(=O)[C@H](CC(=O)O)NC(=O)[C@H](CCC(N)=O)NC(=O)CNC(=O)[C@@H]1C[C@@H](O)CN1)C(=O)N[C@@H](C)C(=O)NCC(=O)N1CCC[C@H]1C(=O)N[C@@H](CCCCN)C(=O)O [YY-101] (H-[Hyp]GQDGLAGPK-OH; N-terminus and C-terminus assumed) | 18061.6 | 18760.0 pg/mL and 17676.7 pg/mL and 17748.1 pg/mL | 18375.1 | 17605.3 pg/mL and 19105.4 pg/mL and 18414.7 pg/mL | 18018.0 | 18069.4 pg/mL and 17248.3 pg/mL and 18736.2 pg/mL | 17232.8 | 16606.0 pg/mL and 16439.5 pg/mL and 18652.8 pg/mL | 16962.9 | 16320.6 pg/mL and 16689.2 pg/mL and 17879.0 pg/mL | 17165.1 | 17129.3 pg/mL and 17748.1 pg/mL and 16617.9 pg/mL | significantly reduced | IL-6 Concentration, Mean (PBMC + test article 0.5 nM, no LPS): 16.2 pg/mL; IL-6 Concentration (PBMC + test article 0.5 nM, no LPS, single replicates (1st, 2nd)): 5.0 pg/mL and 27.3 pg/mL; IL-6 Concentration, Mean (PBMC + test article 5 nM, no LPS): 5.0 pg/mL; IL-6 Concentration (PBMC + test article 5 nM, no LPS, single replicates (1st, 2nd)): 5.0 pg/mL; IL-6 Concentration, Mean (PBMC + test article 0.05 uM, no LPS): 140.1 pg/mL; IL-6 Concentration (PBMC + test article 0.05 uM, no LPS, single replicates (1st, 2nd)): 140.1 pg/mL and <2.65 pg/mL; IL-6 Concentration, Mean (PBMC + test article 50 nM, no LPS): 5.0 pg/mL; IL-6 Concentration (PBMC + test article 50 nM, no LPS, single replicates (1st, 2nd)): 5.0 pg/mL and <2.65 pg/mL; IL-6 Concentration (PBMC + test article 500 nM, no LPS, single replicates (1st, 2nd)): <2.65 pg/mL |
